Measured values from article PMC12257510, “Structure-Guided Design of a KMT9 Inhibitor Prodrug with Cellular Activity” (Journal of Medicinal Chemistry, 2025).

How the values were obtained:
[1] = target: T1, KMT9 (Homo sapiens, UniProt Q9Y5N5); assay: Microscale thermophoresis (MST) binding assay
T1 sequence (Q9Y5N5 1-214): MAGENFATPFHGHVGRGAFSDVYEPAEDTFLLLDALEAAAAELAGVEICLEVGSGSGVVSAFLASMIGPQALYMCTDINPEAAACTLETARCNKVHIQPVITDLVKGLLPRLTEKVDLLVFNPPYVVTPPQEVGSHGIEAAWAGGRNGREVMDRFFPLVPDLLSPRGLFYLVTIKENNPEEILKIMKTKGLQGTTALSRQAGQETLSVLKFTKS
T1 sequence (Q9UI30 1-125 partner): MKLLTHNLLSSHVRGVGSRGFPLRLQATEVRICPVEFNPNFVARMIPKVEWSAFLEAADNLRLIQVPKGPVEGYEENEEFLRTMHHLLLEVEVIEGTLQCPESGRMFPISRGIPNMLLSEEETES
Description: To determine the binding affinity of the compound and KMT9, microscale thermophoresis (MST) analysis was performed with a NanoTemper Monolith NT.115 instrument (NanoTemper Technologies GmbH). KMT9 was labeled with a RED-Tris-NTA labeling kit (NanoTemper Technologies GmbH) based on the manufacturer’s instructions. Buffer including 25 mM HEPES (pH 7.5), 100 mM NaCl, 1 mM DTT and 0.05% Tween was used for the reaction buffer. Varying concentrations of compounds were titrated against His-tag labeled KMT9 proteins (20 nM). Samples were loaded into standard Capillaries (NanoTemper Technologies GmbH) and MST measurements were performed using 40% MST power and 100% LED power. For each set of binding experiments, MST measurement was carried out with Binding Affinity module in MO. Control program under Nano-RED excitation. Data sets were processed with the MO.Affinity Analysis software (NanoTemper Technologies GmbH).

[2] = target: T2, endogenous KMT9a (Homo sapiens, UniProt Q9Y5N5); assay: CETSA in intact SW480 cells, KMT9; type: cell-based; settings: 18 h, vs DMSO
T2 construct: increased thermal stability of endogenous KMT9 in SW480 cell lysates; endogenous in cells; host or cells: SW480
T2 sequence (Q9Y5N5 1-214): T1 sequence (Q9Y5N5 1-214)
T2 sequence (Q9UI30 1-125 partner): T1 sequence (Q9UI30 1-125 partner)
Description: (§1) For whole cell CETSA, the cells were incubated with 10/15 μM of compound 7b/8/8-N for 18 h. Then, cells were washed with cell culture medium, detached from the surface using trypsin, washed with PBS and the number of cells was determined. Cell concentration was adjusted to 3.6 × 10^7 cells/mL using in PBS with Complete (w/o EDTA, Roche) protease inhibitor. Then, cells were frozen in liquid nitrogen and thawed at 25 °C three times, before being divided in 16 aliquots. Each aliquot was heated to a defined temperature between 40 and 70 °C in a PCR cycler (16 well gradient, 55 °C ± 15). After 3 min incubation, aliquots were snap frozen in liquid nitrogen and thawed at 25 °C. Cell lysates were then centrifuged at 20,000 × g , 4 °C for 20 min. Supernatant were mixed with 5× loading buffer, heated to 70 °C for 5 min and analyzed by Western blotting essentially as previously described. For the CETSA performed with cell lysates, cells were directly harvested and lysed as described above. The lysates were then split and incubated either with DMSO or 10 μM compound 7b for 2 h. Then, lysates were aliquoted again into 16 samples each and treated as described for the whole cell CETSA.

[3] = test system: H4K12me1 levels in PC-3 M prostate tumor cells; assay: Western blot of cellular H4K12me1 levels; type: cell-based; settings: PC-3 M cells, 10 μM, 3 days
Description: 7 Cellular activity of prodrug compound 8. (A) Levels of H4K12me1 in PC-3 M prostate tumor cells cultured in the presence of DMSO (−), 10 μM compound 8 or compound 8-N for 3 days were analyzed by Western blot using the indicated antibodies. Histone H4 was used as control. (B, C) Proliferation of Caco-2 cells treated with DMSO (Ctrl), compound 8, or compound 8-N were measured by Xcelligence. Data represent means ± s.d (n = 3). (D) Proliferation of HepG2 cells upon treatment of DMSO (Ctrl) and compound 8.
Experiments were performed as previously described. Histones used for Western blot analysis were extracted from cells as following: Cells were harvested, washed with PBS, resuspended in Triton Extraction Buffer (TEB; PBS, Triton ×100, 2 mM PMSF, 0.02% NaN3), stored 10 min on ice, centrifuged, and supernatant was discarded. After washing cells, a second time with TEB, pellets were resuspended in 0.2 N HCl and histones were acid-extracted overnight at 4 °C. Upon centrifugation for 10 min at 2000 rpm, supernatant was collected and protein concentration was determined. Three days before harvesting, cells were transfected with siRNA as indicated. The following antibodies were used: anti-KMT9α (#27630, lot 20062017, Schüle Lab), antihistone H4 (#ab10158, lot GR322677–1, Abcam), anti-H4K12me1 (#27429, lot 27062017, Schüle Lab).

[4] = test system: SW480 cells; assay: Cell proliferation assay (X-Celligence), SW480; type: cell-based; settings: Xcelligence, vs DMSO
Description: Cell proliferation was determined using the X-Celligence RTCA system (Roche). For real-time recording of SW480, Caco-2 cell proliferation, 5000 cells/well were seeded in 16 well E-plates (Roche). Cells were seeded in the presence of DMSO or compound 8/8-N or transfected with the indicated siRNAs in the presence of Dharmafect (Life Technologies) 24 h before seeding in E-plates. Cell indices were automatically recorded every 15 min. Relative velocities represent the change of the cell index over time. The sequences of the siRNAs (Stealth RNAi siRNAs; Life Technologies) used in the experiments have been previously described.

[5] = target: T3, KMT9a (Homo sapiens, UniProt Q9Y5N5); assay: CETSA in HepG2 cells, KMT9; type: cell-based; parameters: prodrug compound 8 can target endogenous KMT9; endogenous in cells; host or cells: HepG2; settings: vs DMSO
T3 sequence (Q9Y5N5 1-214): T1 sequence (Q9Y5N5 1-214)
T3 sequence (Q9UI30 1-125 partner): T1 sequence (Q9UI30 1-125 partner)
Description: as §1, with “The lysates were then split and incubated either with DMSO or 10 μM compound 7b for 2 h. Then, lysates were aliquoted again into 16 samples each and treated as described for the whole cell CETSA.” left out
Figure S5. […] Representative Western blots (D) and quantification (E) showing increased melting temperatures (ΔT m) of endogenous KMT9a upon treatment with compound 8 compared to DMSO. […] Representative Western blots (F) and quantification (G) showing no obvious shifting melting temperatures (ΔT m) of endogenous KMT5A upon treatment with compound 8 compared to DMSO. […]

Decrease of binding affinity compared to compound 7b ([1]; Kd ratio vs compound 7b): more than 10,000 fold
Kd ([1]; MST, binding to KMT9, read-out: Kd): > 400 µM
ΔTm at 10 µM [2]: 5 °C
ΔTm at 15 µM [5]: 8 °C
Structure (SMILES): CCOC(=O)[C@@H](N)CCN(CCCNCCc1ccc(Oc2ccc(Cl)cc2)c(F)c1)C[C@H]1C[C@@H](n2ccc3c(NC)ncnc32)[C@H](O)[C@@H]1O [compound 8, Ethyl (S)-2-amino-4-((3-((4-(4-chlorophenoxy)-3-fluorophenethyl)amino)propyl) (((1R,2R,3S,4R)-2,3-dihydroxy-4-(4-(methylamino)-7H-pyrrolo[2,3-d]pyrimidin-7-yl)cyclopentyl)methyl)amino)butanoate]
Levels of H4K12me1 [3]: reduced H4K12me1 levels
Proliferation of SW480 cells [4]: also found in SW480 tumor cell lines
